Experimental data reported in patent US8362000B2, “Azetidinyl diamides as monoacylglycerol lipase inhibitors” (Janssen Pharmaceutica NV, priority 2009, dated 2013).
Substitutions are numbered along the chain they refer to. Like-named read-outs stand apart in the source and are kept apart here.

Key:
[1] = molecular target: T1, mutant MGL (Homo sapiens, UniProt Q99685, L169S/L176S); assay: MGL ThermoFluor assay - mutant; type: binding
T1 sequence (Q99685 1-303 L169S/L176S): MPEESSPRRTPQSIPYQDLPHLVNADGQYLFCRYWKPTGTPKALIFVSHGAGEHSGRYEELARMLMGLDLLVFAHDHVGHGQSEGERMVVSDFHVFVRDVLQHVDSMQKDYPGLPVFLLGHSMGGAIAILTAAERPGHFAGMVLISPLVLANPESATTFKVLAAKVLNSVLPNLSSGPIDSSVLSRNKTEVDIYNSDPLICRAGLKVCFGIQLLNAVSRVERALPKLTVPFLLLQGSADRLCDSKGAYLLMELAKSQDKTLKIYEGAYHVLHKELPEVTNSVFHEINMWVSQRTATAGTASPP

[2] = molecular target: T2, purified wild type MGL (wt-MGLL 6H-11-313) (Homo sapiens, UniProt Q99685)
T2 sequence (Q99685 1-303): T1 sequence (Q99685 1-303 L169S/L176S) with S169L, S176L

[3] = ThermoFluor concentration-response, read-out: MGL mutant ThermoFluor Kd
[4] = ThermoFluor thermal stability binding assay, read-out: MGL mutant ThermoFluor Kd
[5] = ThermoFluor, compound concentration measured by qNMR, read-out: MGL mutant ThermoFluor qKd (using qNMR conc.)
[6] = ThermoFluor, compound concentration measured by qNMR, read-out: MGL mutant ThermoFluor qKd (μM) (using qNMR conc.)
[7] = compound concentration measured by qNMR, read-out: MGL mutant ThermoFluor qKd (using qNMR conc.)

Row | IC50 [2] [nM] | Kd [1, 6] [µM] | SMILES | other results
1 | < 5 |  | O=C(c1ccc(-c2nc(-c3ccccc3Cl)cs2)cc1)N1CC(N2CCN(C(=O)c3nccs3)CC2)C1 [Cpd 1328] | Kd [1, 3]: 0.002 µM
2 | 932 |  | O=C(c1cscn1)N1CCN(C2CN(C(=O)c3cc(-c4ccccc4)n(-c4ccccc4)n3)C2)CC1 [Cpd 1261] | Kd [1, 4]: 0.831 µM
3 | 1200 |  | Cc1cc(Br)ccc1C(=O)N1CC(N2CCN(C(=O)c3nccs3)CC2)C1 [Cpd 786] | Kd [1, 5]: 0.665 µM
4 | 129 |  | CC1CN(C(=O)c2nccs2)CCN1C1CN(C(=O)c2ccc(Cc3ccccc3)cc2)C1 (stereo not drawn) [Cpd 47, 1-{1-[(4-Benzylphenyl)carbonyl]azetidin-3-yl}-2-methyl-4-(1,3-thiazol-2-ylcarbonyl)piperazine] | Kd [1, 3]: 0.0909 µM
5 | 1550 |  | O=C(c1ccccc1)N1CCN(C2CN(C(=O)c3cccc4[nH]c(-c5ccccc5)nc34)C2)CC1 [Cpd 601] | Kd [1, 4]: 0.527 µM
6 | 200 | 0.106 | Cc1noc(C)c1-c1ccc2cc(C(=O)N3CC(N4CCN(C(=O)c5nccs5)CC4)C3)[nH]c2c1 [Cpd 1211] | 
7 | 933 | 1.2 | O=C(c1nccs1)N1CCN(C2CN(C(=O)c3sc4cc(C(F)(F)F)ccc4c3Cl)C2)C(C(F)(F)F)C1 (stereo not drawn) [Cpd 778, 1-(1-{[3-Chloro-6-(trifluoromethyl)-1-benzothiophen-2-yl]carbonyl}azetidin-3-yl)-4-(1,3-thiazol-2-ylcarbonyl)-2-(trifluoromethyl)piperazine] | 
8 | 9 | 0.006 | O=C(c1ccc2c(cnn2-c2ccc(C(F)(F)F)cc2)c1)N1CC(N2CCN(C(=O)c3nccs3)CC2)C1 [Cpd 1080] | 
9 | 186 | 0.182 | O=C(c1ccccc1)N1CCN(C2CN(C(=O)c3ccc4c(cnn4-c4ccc(F)c(F)c4)c3)C2)CC1 [Cpd 590] | 
10 | > 16700 |  | C[C@@H]1CN(C(=O)c2nccs2)C[C@H](C)N1C1CN(C(=O)c2cc3ccc(C(F)(F)F)cc3s2)C1 [Cpd 953] | Kd [1, 5]: > 26.9 µM
11 | 266 |  | O=C(c1ccc(-c2ccccc2)cc1)N1CC(N2CCN(C(=O)c3cocn3)CC2)C1 [Cpd 1222] | Kd [1, 4]: 0.068 µM
12 | 13300 |  | O=C(c1ccc2[nH]c(-c3ccccc3)nc2c1)N1CCN(C2CN(C(=O)c3ccccc3)C2)CC1 [Cpd 611] | Kd [1, 3]: 5.15 µM
13 | 2080 |  | O=C(c1cscn1)N1CCN(C2CN(C(=O)c3cc4ccc(C(F)(F)F)nc4o3)C2)CC1 [Cpd 808] | Kd [1, 3]: 62.5 µM
14 | 127 |  | O=C(c1ccc2c(ccn2CC(F)F)c1)N1CC(N2CCN(C(=O)c3nccs3)CC2)C1 [Cpd 711, 1-(2,2-Difluoroethyl)-5-({3-[4-(1,3-thiazol-2-ylcarbonyl)piperazin-1-yl]azetidin-1-yl}carbonyl)-1H-indole] | Kd [1, 7]: 0.05 µM
15 | < 5 |  | O=C(c1ccc2c(cnn2Cc2ccc(F)cc2)c1)N1CC(N2CCN(C(=O)c3nccs3)CC2)C1 [Cpd 1029, 1-(4-Fluorobenzyl)-5-({3-[4-(1,3-thiazol-2-ylcarbonyl)piperazin-1-yl]azetidin-1-yl}carbonyl)-1H-indazole] | Kd [1, 7]: 0.006 µM
16 | 63 | 0.195 | O=C(c1ccccc1)N1CCN(C2CN(C(=O)c3ccc4c(ccn4-c4cc(F)ccc4F)c3)C2)CC1 [Cpd 578] | 
17 | 257 |  | Cc1c(Cc2ccc(C(F)(F)F)cc2)cccc1C(=O)N1CC(N2CCN(C(=O)c3ccns3)CC2)C1 [Cpd 1014] | Kd [1, 3]: 0.903 µM
18 | 87 |  | O=C(c1ccc(-n2nccc2-c2ccc(F)cc2)cc1)N1CC(N2CCN(C(=O)c3nccs3)CC2)C1 [Cpd 1412] | Kd [1, 4]: 0.241 µM
19 | > 16700 | 10 | O=C(c1cn2cc(C(F)(F)F)ccc2n1)N1CC(N2CCN(C(=O)c3nccs3)CC2)C1 [Cpd 1453] | 
20 | > 16700 |  | O=C(c1cc2ccc(C(F)(F)F)cc2[nH]1)N1CC(N2CCN(C(=O)c3ccns3)CC2)C1 [Cpd 1445] | Kd [1, 4]: > 31.2 µM
21 | 195 | 0.097 | O=C(c1ccc2nc(-c3nccs3)sc2c1)N1CC(N2CCN(C(=O)c3nccs3)CC2)C1 [Cpd 1210] | 
